Laboratory results from PMC7311396, “Ultra-large chemical libraries for the discovery of high-affinity peptide binders” (Nature Communications, 2020).
Non-standard residues stand in square brackets, D forms with d. Residues, ends and D or L forms follow the SMILES beside them.

Columns and labels:
12ca5 [1] = test: Magnetic bead affinity capture of 12ca5-binding peptides, recovery by nLC-MS; set-up: species or system mouse
Description: Identification of binders from high-diversity libraries would necessitate their efficient recovery at high dilution. To assess the utility of magnetic bead-based affinity capture for this purpose, we investigated the recovery of a number of peptide binders with varying affinity for anti-HA mAb clone 12ca5 (12ca5), which recognizes the linear motif DXXDYA (Supplementary Figs. 1–6; Supplementary Table 1). In these experiments, streptavidin-coated magnetic beads (1 mg; 0.13 nmol IgG binding capacity) functionalized with biotinylated 12ca5 were incubated with mixtures of 12ca5-binding peptides (either 1 nM/peptide, 100 pM/peptide, or 10 pM/peptide; 1 mL scale). The magnetic beads were isolated, washed with buffer, and treated with chemical denaturant to elute bound peptides. A portion of this eluate (~2%) was subjected to nLC-MS analysis, and recovery was quantified using normalized MS response. To calculate recovery, a separate dose-response curve was generated for each peptide, since their MS responses varied by ~5-fold (Supplementary Fig. 7). […]

anti-HA mAb clone 12ca5 = test: Competition fluorescence polarization of HA epitope and analogues; format: binding; conditions: for IC50: competition FP, 100 nM 12ca5, 28 nM YPYDVPDYAK(FITC)-CONH2, 1 mg/mL BSA, 0.02% Tween 20, 1x PBS, RT, read after 1 h; for Kd: from competition FP, 100 nM 12ca5, 28 nM FITC tracer
Description: Competition fluorescence polarization of HA epitope and analogues:
Solutions of unlabeled peptides (~1 mg/mL each; Supplementary Table 1) in 1x PBS was prepared in the presence of 100 nM 12ca5, 1 mg/mL BSA, 0.02% Tween 20 (120 μL). Fluorescent competitor was added (YPYDVPDYAK(FITC)α-CONH2; 28 nM).
The resulting solution was diluted serially (20 μL) into 100 nM 12ca5, 28 nM […]
YPYDVPDYAK(FITC)α-CONH2, 1 mg/mL BSA, 0.02% Tween 20 in 1x PBS (80 μL; […]
5-fold dilutions). The resulting solutions were transferred to a 96 well plate (Greiner Bio- […]
(RT), and read after 1 h on a Tecan Infinite M1000 plate reader (470 nm excitation; 517 nm detection; 5 nm bandwidth). The concentration of fluorescent […] was determined based on absorbance at 490 nm, using ε = 76,900 M-1cm-1.
Competition fluorescence polarization of HA epitope Ala scan mutants:
Competition fluorescence polarization experiments were carried out as described in Competition fluorescence polarization of HA epitope and analogues.

12ca5 [2] = test: Affinity selection from 10^8-member library against 12ca5 with exogenous competitor; conditions: 10 pM/member, 0.13 nmol 12ca5

C[C@H](NC(=O)[C@H](Cc1ccc(O)cc1)NC(=O)[C@H](CC(=O)O)NC(=O)[C@H](CCC(=O)O)NC(=O)[C@H](Cc1ccc(O)cc1)NC(=O)[C@H](CC(=O)O)NC(=O)[C@@H](N)Cc1ccccc1)C(=O)N[C@@H](CCC(=O)O)C(=O)N[C@@H](Cc1c[nH]c2ccccc12)C(=O)N[C@@H](CCCCN)C(N)=O [FDYEDYAEWK] (H-FDYEDYAEWK-NH2)
recovery (12ca5 [1]; 1 mg 12ca5-functionalized beads, 1 mL, 1 nM to 10 pM/peptide, 1 h 4 °C, 3 PBS washes (~6 min), normalized MS response): 33%
recovery expected based on measured dissociation rate (12ca5 [1]; based on koff = 3.0 × 10^−3 s^−1 and total wash time of ~6 min): 34%
IC50 (anti-HA mAb clone 12ca5): 590 ± 190 nM
Kd (anti-HA mAb clone 12ca5): 25 ± 13 nM

NCC(=O)N[C@H](Cc1ccc(O)cc1)C(=O)N1CCC[C@@H]1C(=O)N[C@H](Cc1ccc(O)cc1)C(=O)N[C@H](CCC(=O)O)C(=O)N[C@H](Cc1ccc(O)cc1)C(=O)N[C@H](CC(=O)O)C(=O)N[C@H](Cc1c[nH]c2ccccc12)C(=O)N[C@H](CCC(=O)O)C(N)=O [Gypyeydwe, reference compound] (H-G[dY][dP][dY][dE][dY][dD][dW][dE]-NH2)
IC50 (anti-HA mAb clone 12ca5): 62000 ± 8000 nM
Kd (anti-HA mAb clone 12ca5): 3000 nM
competitor concentration required to attenuate the recovery of DXXDY(A/S) peptides (12ca5 [2]): 100 µM
